Measurements as given in patent US20100316729A1, “Use of Hyperbaric Conditions to Provide Neuroprotection” (AIR PRODUCTS AND CHEMICALS, INC., priority 2007, published 2010).
“Also recorded” adds a separate entry of the source.

System: organotypic hippocampal slice cultures (focal trauma to the CA1 region)
Assay: in vitro model of traumatic brain injury: focal mechanical trauma to organotypic hippocampal slices, injury quantified by propidium iodide fluorescence
Assay type: cell-based, C57/BL6 mice
Details: for effect of added pressure of gas on development of total injury, highest added pressure / effect of added pressure of gas on development of total injury, low added pressures: gas added to 1 atm of 95% air/5% CO2, FIG. 4 / FIG. 5; for effect of added pressure of gas on development of total injury, highest added pressure: highest pressure tested (about 2 atm added, about 3 atm total); for effect of added pressure of gas on development of total injury, low added pressures: low added pressures (up to about 1 atm); for predicted level of normalized injury after 72 hours / observed degree of normalized injury after 72 hours: normobaric; for predicted level of normalized injury after 72 hours: 75% test gas replacing nitrogen, calculated from dashed lines of FIG. 4 / FIG. 5; for observed degree of normalized injury after 72 hours: 75% test gas/20% oxygen/5% CO2 (test gas substituted for nitrogen), 37° C., injury relative to control (75% nitrogen, 1 atm, 72 h) = 1
Description: The properties of xenon and other gases were investigated in an in vitro model of traumatic brain injury (as described below in greater detail, under the heading “Example”). The model chosen involved creating a focal mechanical trauma centered on the CA1 region of cultured hippocampal brain slices, and assessing neurological injury using propidium iodide staining. A small solenoid retains a stylus 5 mm above a cultured hippocampal slice which is positioned using a micromanipulator. A fiber-optic light source illuminates the slice from beneath. As shown in (B) the stylus is constrained in a glass capillary and positioned just above the CA1 region of the hippocampus.
Organotypic hippocampal slice cultures were prepared as reported by Stoppini L, et al in “A simple method for organotypic cultures of nervous tissue” J Neurosci Methods 1991; 37:173-82, subject to some modifications. Briefly, brains were removed from seven-day-old C57/BL6 mice pups (Harlan UK Ltd., Bicester, Oxfordshire, UK) and placed in ice-cold “preparation” medium. The preparation medium contained Gey's balanced salt solution and 5 mg ml^−1 D-glucose (BDH Chemicals Ltd., Poole, Dorset, UK). The hippocampi were removed from the brains and 400 μm thick transverse slices were prepared using a McIllwain tissue chopper. Slices were transferred into ice-cold preparation medium, gently separated and then placed onto tissue culture inserts (Millicell-CM, Millipore Corporation, Billerica, Mass.) which were inserted into a six-well tissue culture plate. The wells contained “growth” medium which consisted of 50% Minimal Essential Media Eagle, 25% Hank's balanced salt solution, 25% inactivated horse serum, 2 mM L-glutamine, 5 mg ml^−1 D-glucose (BDH) and 1% antibiotic-antimycotic suspension. Slices were incubated at 37° C. in a 95% air/5% CO2 humidified atmosphere. The growth medium was changed every three days. Experiments were carried out after 14 days in culture.
After the hippocampal slices had been in culture for 14 days, the growth medium was changed to “experimental” medium. The experimental medium was serum-free and consisted of 75% Minimal Essential Media Eagle, 25% Hank's balanced salt solution, 2 mM L-glutamine, 5 mg ml^−1 D-glucose, 1% antibiotic-antimycotic suspension and 4.5 μM propidium iodide.
The trauma to the slices was produced with a specially designed apparatus (FIG. 1) which was based on published descriptions (Adamchik Y, et al “Methods to induce primary and secondary traumatic damage in organotypic hippocampal slice cultures” Brain Res Brain Res Protoc 2000; 5:153-8 and Adembri C, et al “Erythropoietin attenuates post-traumatic injury in organotypic hippocampal slices” J Neurotrauma 2004; 21:[…], 21). Under a stereomicroscope a stylus was positioned 5 mm above the CA1 region of the hippocampus using a three-axis micromanipulator. The stylus dropped onto the slice with an impact of 3.5 μJ when power to a small electromagnet was switched off. […] The distal part of the stylus was smooth and rounded in order to prevent perforation of the slice and the impact produced a focal injury with a diameter of 750±17 μm (mean±SD).
After traumatizing the CA1 region, the culture trays were transferred to a small pressure chamber which contained a high-speed fan for rapid gas mixing. The pressure chamber was capable of maintaining a constant pressure of up to six atmospheres for several days. The pressure chamber was housed in an incubator which was set at 37° C. for normothermic experiments or 32° C. for experiments at moderate hypothermia. Subsequently, the pressure chamber (gas volume 0.925 litre) was flushed with humidified control gas (95% air and 5% CO2) for 5 min at 5 litres min^−1 which ensures better than 99.99% gas replacement. After flushing, the pressure chamber was sealed, and slices under these conditions were considered to be the “injury controls” (75% nitrogen/20% oxygen/5% CO2). […]

Row | SMILES | effect of added pressure of gas on development of total injury, highest added pressure | effect of added pressure of gas on development of total injury, low added pressures | predicted level of normalized injury after 72 hours | observed degree of normalized injury after 72 hours | theoretical effect of increased gas level per se (effects of helium/pressure subtracted) (dashed line in FIG. 4, independent of the effects of pressure) | injury outcome with added nitrogen compared with added helium (nitrogen substituted for helium as added gas, all pressures 0.25-2 atm added, FIG. 4)
1 | [Xe] [xenon] | toxicity; also recorded: significant neurotoxicity | marked neuroprotection | 0.59 | 0.50±0.04 | – | –
2 | [He] [helium] | came back close to control levels | potent neuroprotection; also recorded: injury decreased | 0.75 | 0.67±0.10 | – | –
3 | N#N [nitrogen] | – | – | – | – | detrimental in a fashion that is roughly linear with increasing amounts | significantly worse injury outcome
